Measurements taken from patent publication US8258104B2, “Method and composition for treating allergic diseases” (Wholesome Biopharm Pty Ltd., priority 2006, dated 2012).

Legend:
Assay type in all cases: in vivo, BALB/c mice
OVA-sensitized mice [1] = assay: Lung tissue histology (hematoxylin and eosin, light microscope); conditions: ribavirin 30 and 10 mg/ml; FIG. 4
Description: (§1) Female BALB/c mice were obtained and maintained in the Animal Center of the College of Medicine of National Taiwan University (Taiwan, R.O.C.). Animals were used between 6 and 10 weeks of age and were age matched within each experiment. Animal experiment protocol was approved by Animal Committee of the College of Medicine of National Taiwan University (Taiwan, R.O.C.).
(§2) Mice were randomly divided into 4 groups and sensitized by an intraperitoneal injection of OVA (10 μg), which were complexed with aluminum potassium sulfate (alum, 2 mg) on day 0. All mice were boosted with another shot of OVA (10 μg) on day 14 and day 28, respectively. The mice in the negative control group were injected with phosphate buffer solution (PBS). As to the mice in the rest three groups, each group received 20 μl of 0, 10 or 30 mg/ml ribavirin together with intranasal challenge of 0.05 mg of OVA on days 38-40, respectively. AHR for mice in each group was measured on day 41, and all mice were bled and sacrificed on day 42, when the experiment ended. FIG. 1 illustrated the timeline of the above-identified OVA protocol used in this study.
After the lavage, the lungs were immediately removed and fixed in 10% neutral-buffered formalin, routinely processed, and embedded in paraffin wax. […]

OVA-sensitized mice [2] = assay: Cellular composition of bronchoalveolar lavage (BAL) fluid (airway eosinophilic inflammation); conditions: ribavirin 10 or 30 mg/ml intranasal
Description: as §1, §2
Whether ribavirin could alleviate airway inflammation in OVA-sensitized mice was determined by analyzing the cellular composition in the bronchoalveolar lavage (BAL) fluid of the sensitized mice 48 hours a the last challenge. In brief, all groups of OVA sensitized mice were bled from the retro-orbital venous plexus and sacrificed. The lung was immediately lavaged via the trachea cannula with 3×1 ml of HBSS, free of ionized calcium and magnesium. The lavage fluid was centrifuged at 400 xg for 10 minutes at 4° C. After washing, the cells were resuspended in 1 ml HBSS and total cells counts were determined by use of a hemocytometer. Cytocentrifuged preparations were stained with Liu's stain for different cell counts. A minimum of 200 cells was counted and classified as macrophages, lymphocytes, neutrophils and eosinophils, based on standard morphological criteria. Results were illustrated in FIG. 3. […] On the contrary, treatment of ribavirin (10 or 30 mg/ml) decreased not only the total cell counts (FIG. 3A), but also the number of respective cell types including monocytes, neutrophils, and eosinophiles (FIG. 3B).

OVA-sensitized mice [3] = assay: Airway hyper-responsiveness (AHR) to aerosolized methacholine, whole-body plethysmography (Penh); conditions: intranasal ribavirin 10 or 30 mg/ml, Mch 0-50 mg/ml, FIG. 2
Description: as §1
Mice were randomly divided into 4 groups and sensitized by an intraperitoneal injection of OVA (10 μg), which were complexed with aluminum potassium sulfate (alum, 2 mg) on day 0. All mice were boosted with another shot of OVA (10 μg) on day 14 and day 28, respectively. The mice in the negative control group were injected with phosphate buffer solution (PBS). […] AHR for mice in each group was measured on day 41, and all mice were bled and sacrificed on day 42, when the experiment ended. […]
The effect of ribavirin on airway responsiveness to aerosolized methacholine (Mch) in OVA-sensitized mice were assessed by the following procedures. […] Each reading was taken for 3 minutes and averaged for the entire time course after nebulization. Calculated Data were expressed as the fold increases above saline challenge baseline values using the dimensionless parameter Penh as described. […]

OVA-sensitized mice [4] = assay: Chemokine/cytokine levels in BAL fluid by ELISA
Description: as §1, §2
OVA-sensitized mice were lavage according to the procedure described above, and the levels of chemokines were assayed by an ELISA kit (R&D) in accordance with the manufacturer's instructions. Take the measurement of eotaxin as an example, the BAL fluid was collected and added to wells precoated with anti-eotaxin antibodies over night at 4° C. After incubation for 2 hours, the plates were washed and biotin-conjugated antibodies were added. After two more hours at room temperature, HRP-avidin was then added, and the OD (at 450 nm) values were converted to concentrations of eotaxin in the BALF. The level of other chemokines including KC, IL-4 and INF-γ may be measured according to similar procedures. Results were illustrated in FIG. 5.

NC(=O)c1ncn([C@@H]2O[C@H](CO)[C@@H](O)[C@H]2O)n1 [ribavirin]
infiltration of cells in the lung (OVA-sensitized mice [1]): efficiently inhibit the infiltration of the cells | pathological damage within the lung (OVA-sensitized mice [1]): reduce the pathological damage within the lung | total cell counts in BAL fluid (OVA-sensitized mice [2]; 48 hours after last challenge, FIG. 3A): decreased | number of eosinophils in BAL fluid (OVA-sensitized mice [2]; FIG. 3B): decreased | number of monocytes in BAL fluid (OVA-sensitized mice [2]; FIG. 3B): decreased | number of neutrophils in BAL fluid (OVA-sensitized mice [2]; FIG. 3B): decreased | airway responsiveness to Mch (Penh) (OVA-sensitized mice [3]): inhibited the increase in airway responsiveness to Mch | level of IF-γ in BAL fluid (OVA-sensitized mice [4]; FIG. 5a): not affected | level of IL-4 in BAL fluid (OVA-sensitized mice [4]; FIG. 5b): not affected | level of KC in BAL fluid (OVA-sensitized mice [4]; FIG. 5c): significant reduced | level of eotaxin in BAL fluid (OVA-sensitized mice [4]; FIG. 5d): significant reduced
